Article PMC9861386, “N-Heterocyclic Carbene-Iridium Complexes as Photosensitizers for In Vitro Photodynamic Therapy to Trigger Non-Apoptotic Cell Death in Cancer Cells” (Molecules, 2023)
Read-outs that look alike come from different tables or passages of the source.

Legend:
MC3T3 osteoblasts = experiment: MTT cell viability, 72 h, dark or 458 nm irradiation; format: cell-based, murine
Protocol: (§1) For all biology experiments, the compounds were solubilized in DMSO to reach a final fixed concentration equal to 0.1% v/v to avoid cytotoxicity caused by DMSO [89]. The results are normalized to controls (0.1% v/v DMSO). Depending on the cell type, approximatively 1000 to 10,000 cells/cm^2 were seeded in 48-well plates for MTT, ATP and GSH assays and 60 mm Petri dishes for Western blots. Cells were allowed to attach overnight and then incubated for 4 h with the different complexes (in the dark), then irradiated for 10 min, followed by an incubation in the dark up to 72 h.
(§2) Irradiation was conducted using an in-house device: a series of blue light LEDs selected according to the absorption spectra of the compounds at a 458 nm wavelength with an emitted power of 9.6 watts. The absorbed energy, or irradiance, was measured at 458 nm with a Thorlabs Optical Power Meter PM100A at 5 and 10 cm distance between the cell layer and the light source and expressed as mW/cm^2.
(§3) A tetrazolium-based MTT reagent (3-(4,5-dimethylthiazol-2-yl)-2,5-diphenyltetrazolium bromide) was used to determine cell viability, as previously described. After 72 h of treatment at 37 °C and 5% CO2, cells were incubated with 25 μL MTT solution (5 mg/mL; Sigma-Aldrich) for 4 h. After solubilization with 500 μL of lysis buffer (DMSO), formazan was quantified by spectrophotometry with a microplate reader at 570 nm absorbance (ClarioSTAR, BMG LabTech, Champigny-sur-Marne, France). GI50 values corresponding to the concentration that caused 50% inhibition of cell proliferation were calculated from dose–response curves obtained by nonlinear regression analysis. All results were calculated from data obtained in at least three independent experiments.

NIH-3T3 fibroblasts = experiment: as above; format: cell-based, murine; conditions: for GI50: 72 h, MTT; for PI NIH-3T3: GI50 non-irradiated / GI50 irradiated
Protocol: as §1, §2, §3

A549 lung cancer cells = experiment: as above; format: cell-based, human; conditions: for GI50: 72 h, MTT; for PI A549: GI50 non-irradiated / GI50 irradiated; for SI vs MC3T3, A549 Blue / SI vs NIH, A549 Blue: blue light; for SI vs MC3T3, A549 Blue / SI vs MC3T3, A549 Dark: GI50 MC3T3 / GI50 A549; for SI vs NIH, A549 Blue / SI vs NIH, A549 Dark: GI50 NIH-3T3 / GI50 A549
Protocol: as §1, §2, §3

HeLa cervix cancer cells = experiment: as above; format: cell-based, human; conditions: for GI50: 72 h, MTT; for PI HeLa: GI50 non-irradiated / GI50 irradiated; for SI vs MC3T3, HeLa Blue / SI vs NIH, HeLa Blue: blue light; for SI vs MC3T3, HeLa Blue / SI vs MC3T3, HeLa Dark: GI50 MC3T3 / GI50 HeLa; for SI vs NIH, HeLa Blue / SI vs NIH, HeLa Dark: GI50 NIH-3T3 / GI50 HeLa
Protocol: as §1, §2, §3

[1] = test system: MCF7/FasR breast cancer cells; experiment: as above; format: cell-based, human; conditions: for GI50: 72 h, MTT; for PI MCF7: GI50 non-irradiated / GI50 irradiated; for SI vs MC3T3, MCF7 Blue / SI vs NIH, MCF7 Blue: blue light; for SI vs MC3T3, MCF7 Blue / SI vs MC3T3, MCF7 Dark: GI50 MC3T3 / GI50 MCF7; for SI vs NIH, MCF7 Blue / SI vs NIH, MCF7 Dark: GI50 NIH-3T3 / GI50 MCF7
Protocol: as §1, §2, §3

[2] = test system: PC-3 prostate cancer cells; experiment: as above; format: cell-based, human; conditions: for GI50: 72 h, MTT; for PI PC-3: GI50 non-irradiated / GI50 irradiated; for SI vs MC3T3, PC-3 Blue / SI vs NIH, PC-3 Blue: blue light; for SI vs MC3T3, PC-3 Blue / SI vs MC3T3, PC-3 Dark: GI50 MC3T3 / GI50 PC-3; for SI vs NIH, PC-3 Blue / SI vs NIH, PC-3 Dark: GI50 NIH-3T3 / GI50 PC-3
Protocol: as §1, §2, §3

T24 bladder cancer cells = experiment: as above; format: cell-based, human; conditions: for GI50: 72 h, MTT; for PI T24: GI50 non-irradiated / GI50 irradiated; for SI vs MC3T3, T24 Blue / SI vs NIH, T24 Blue: blue light; for SI vs MC3T3, T24 Blue / SI vs MC3T3, T24 Dark: GI50 MC3T3 / GI50 T24; for SI vs NIH, T24 Blue / SI vs NIH, T24 Dark: GI50 NIH-3T3 / GI50 T24
Protocol: as §1, §2, §3

PC-3 = experiment: MTT cytotoxicity, 48 h; format: cell-based, human; conditions: for GI50: MTT; for SI (PC-3): NIH3T3 vs PC-3
Protocol: (§4) The in vitro cytotoxicity of iridium(III) complexes 4a–4g was first evaluated against cancer cell lines PC-3 (human prostate) and T24 (human bladder) and the non-cancerous NIH-3T3 cell line (murine fibroblasts) using colorimetric MTT tests after 48 h of treatment. The dimeric iridium precursor [IrCl(ppy)2]2 was used as reference and the results are summarized in Table S1 (Supplementary Materials) in the supporting information file. […] The complexes were also evaluated for their cytotoxicity towards healthy NIH-3T3 cells, giving access to the selectivity index (SI). […] No linear correlation between lipophilicity and anti-cancer activity was found for the iridium(III) complexes 4a–4g. For the following biological studies, we focused on the C1 series.
(§5) Table S1. Cytotoxic activity of iridium(III) NHC complexes 4a−4g expressed as GI50 (μM) values towards selected cancer and normal cell lines as determined by MTT assay (48 h).a Complex PC-3 T24 NIH3T3 SI (PC-3) SI (T24) […]
(§6) a GI50 values correspond to the concentration of complexes causing 50 % inhibition of cell growth.
(§7) Data were obtained from three independent experiments.
(§8) The cytotoxic effects of the NHC precursors, the imidazolium salts, which represents the potential hydrolysis and/or degradation products of the complexes, have been published before [SI-1, SI-2]. […]

T24 = experiment: MTT cytotoxicity, 48 h; format: cell-based, human; conditions: for GI50: MTT; for SI (T24): NIH3T3 vs T24
Protocol: as §4, §5, §6, §7, §8

[3] = 458 nm irradiation 10 min, read-out: GI50 MC3T3 Blue
[4] = dark, read-out: GI50 MC3T3 Dark
[5] = 458 nm irradiation 10 min, read-out: GI50 NIH-3T3 Blue
[6] = dark, read-out: GI50 NIH-3T3 Dark
[7] = 458 nm irradiation 10 min, read-out: GI50 A549 Blue
[8] = 458 nm irradiation 10 min, read-out: GI50 HeLa Blue
[9] = 458 nm irradiation 10 min, read-out: GI50 MCF7 Blue
[10] = 458 nm irradiation 10 min, read-out: GI50 PC-3 Blue
[11] = 458 nm irradiation 10 min, read-out: GI50 T24 Blue

## CC(C)[n+]1ccn2[c]1[Ir-3]13([c]4ccccc4-c4cccc[n+]41)([c]1ccccc1-c1cccc[n+]13)[c]1n(cc[n+]1C(C)C)C2.F[P-](F)(F)(F)(F)F [Complex 4a]
MC3T3 osteoblasts; [3]
  GI50: 1.74 µM
MC3T3 osteoblasts; [4]
  GI50: 2.46 µM
NIH-3T3 fibroblasts; [5]
  GI50: 2.79 µM
NIH-3T3 fibroblasts
  PI NIH-3T3: 1.3
NIH-3T3 fibroblasts; [6]
  GI50: 3.67 µM
A549 lung cancer cells; [7]
  GI50: 0.107 µM
A549 lung cancer cells
  PI A549: 3.3
  SI vs MC3T3, A549 Blue: 16.3
  SI vs NIH, A549 Blue: 26.1
A549 lung cancer cells; dark, read-out: GI50 A549 Dark
  GI50: 0.355 µM
A549 lung cancer cells; dark
  SI vs MC3T3, A549 Dark: 6.9
  SI vs NIH, A549 Dark: 10.3
HeLa cervix cancer cells; [8]
  GI50: 0.525 µM
HeLa cervix cancer cells
  PI HeLa: 2.5
  SI vs MC3T3, HeLa Blue: 3.3
  SI vs NIH, HeLa Blue: 5.3
HeLa cervix cancer cells; dark, read-out: GI50 HeLa Dark
  GI50: 1.29 µM
HeLa cervix cancer cells; dark
  SI vs MC3T3, HeLa Dark: 1.9
  SI vs NIH, HeLa Dark: 2.8
[1]; [9]
  GI50: 0.05 µM
[1]
  PI MCF7: 4.3
  SI vs MC3T3, MCF7 Blue: 34.8
  SI vs NIH, MCF7 Blue: 55.8
[1]; dark, read-out: GI50 MCF7 Dark
  GI50: 0.213 µM
[1]; dark
  SI vs MC3T3, MCF7 Dark: 11.5
  SI vs NIH, MCF7 Dark: 17.2
[2]; [10]
  GI50: 0.057 µM
[2]
  PI PC-3: 4.1
  SI vs MC3T3, PC-3 Blue: 30.5
  SI vs NIH, PC-3 Blue: 48.9
[2]; dark, read-out: GI50 PC-3 Dark
  GI50: 0.233 µM
[2]; dark
  SI vs MC3T3, PC-3 Dark: 10.6
  SI vs NIH, PC-3 Dark: 15.8
T24 bladder cancer cells; [11]
  GI50: 0.082 µM
T24 bladder cancer cells
  PI T24: 3.5
  SI vs MC3T3, T24 Blue: 21.2
  SI vs NIH, T24 Blue: 34.0
T24 bladder cancer cells; dark, read-out: GI50 T24 Dark
  GI50: 0.288 µM
T24 bladder cancer cells; dark
  SI vs MC3T3, T24 Dark: 8.5
  SI vs NIH, T24 Dark: 12.7
PC-3
  GI50: 0.48 µM
  SI (PC-3): 6.9
T24
  GI50: 0.31 µM
  SI (T24): 10.6

## CC(C)C[n+]1ccn2[c]1[Ir-3]13([c]4ccccc4-c4cccc[n+]41)([c]1ccccc1-c1cccc[n+]13)[c]1n(cc[n+]1CC(C)C)C2.F[P-](F)(F)(F)(F)F [Complex 4b]
MC3T3 osteoblasts; [3]
  GI50: 0.704 µM
MC3T3 osteoblasts; [4]
  GI50: 0.979 µM
NIH-3T3 fibroblasts; [5]
  GI50: 1.52 µM
NIH-3T3 fibroblasts
  PI NIH-3T3: 1.3
NIH-3T3 fibroblasts; [6]
  GI50: 1.95 µM
A549 lung cancer cells; [7]
  GI50: 0.084 µM
A549 lung cancer cells
  PI A549: 4.2
  SI vs MC3T3, A549 Blue: 8.4
  SI vs NIH, A549 Blue: 18.1
A549 lung cancer cells; dark, read-out: GI50 A549 Dark
  GI50: 0.354 µM
A549 lung cancer cells; dark
  SI vs MC3T3, A549 Dark: 2.8
  SI vs NIH, A549 Dark: 5.5
HeLa cervix cancer cells; [8]
  GI50: 0.294 µM
HeLa cervix cancer cells
  PI HeLa: 2.1
  SI vs MC3T3, HeLa Blue: 2.4
  SI vs NIH, HeLa Blue: 5.2
HeLa cervix cancer cells; dark, read-out: GI50 HeLa Dark
  GI50: 0.625 µM
HeLa cervix cancer cells; dark
  SI vs MC3T3, HeLa Dark: 1.6
  SI vs NIH, HeLa Dark: 3.1
[1]; [9]
  GI50: 0.053 µM
[1]
  PI MCF7: 4.0
  SI vs MC3T3, MCF7 Blue: 13.3
  SI vs NIH, MCF7 Blue: 28.7
[1]; dark, read-out: GI50 MCF7 Dark
  GI50: 0.211 µM
[1]; dark
  SI vs MC3T3, MCF7 Dark: 4.6
  SI vs NIH, MCF7 Dark: 9.2
[2]; [10]
  GI50: 0.071 µM
[2]
  PI PC-3: 3.6
  SI vs MC3T3, PC-3 Blue: 9.9
  SI vs NIH, PC-3 Blue: 21.4
[2]; dark, read-out: GI50 PC-3 Dark
  GI50: 0.257 µM
[2]; dark
  SI vs MC3T3, PC-3 Dark: 3.8
  SI vs NIH, PC-3 Dark: 7.6
T24 bladder cancer cells; [11]
  GI50: 0.09 µM
T24 bladder cancer cells
  PI T24: 2.8
  SI vs MC3T3, T24 Blue: 7.7
  SI vs NIH, T24 Blue: 16.7
T24 bladder cancer cells; dark, read-out: GI50 T24 Dark
  GI50: 0.259 µM
T24 bladder cancer cells; dark
  SI vs MC3T3, T24 Dark: 3.8
  SI vs NIH, T24 Dark: 7.5
PC-3
  GI50: 0.51 µM
  SI (PC-3): 6.9
T24
  GI50: 0.38 µM
  SI (T24): 9.2
